These results are taken from US10035800B2 (AbbVie Inc., priority 2013, dated 2018).

Read-outs that look alike come from different tables or passages of the source.

For one assay, the target named is T1, BRD4 (BDI_K57-E168) (Homo sapiens, UniProt O60885).
T1 construct: BD1: amino acids K57-E168; made in house
Briefly: TR-FRET bromodomain binding assay, first bromodomain of BRD4. The note with it: TR-FRET assay protocol G (compound 0.92 μM-15 pM); 100 nM probe. In a few lines: (§1)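 Ki values derive from IC50s using probe Kd and concentration, with IC50s fitted to normalized TR-FRET ratios (Ex 340/Em 495, 520). Compounds competed against an Alexa647-labelled BET-inhibitor (100 nM BDI, 30 nM BDII) for 8 nM His-tagged bromodomain bound by Eu-anti-His antibody, 1 h, room temperature, pH 6.0.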
In general terms: In TR-FRET formats the signal depends on donor and acceptor labels being close together.

The target in another assay is T2, BRD4 (BDII_E352-M457) (Homo sapiens, UniProt O60885).
T2 construct: protocol; made in house
Description: TR-FRET bromodomain binding assay, second bromodomain of BRD4. Particulars: TR-FRET assay protocol G (compound 0.92 μM-15 pM); 30 nM probe. A digest of the protocol:
as §1

Assay [1] relates to breast cancer cell line MX-1. Briefly: MX-1 cell line proliferation assay. It counts as cell-based. The note with it: MX-1 cells, 3-day proliferation assay, Cell Titer Glo, read-out: Cellular proliferation: EC50. In a few lines:
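EC50 comes from sigmoidal fits of Cell Titer Glo luminescence relative to DMSO controls, with assay MSR 2.1. Ten-point 3-fold dilutions (top 3 or 1 μM final) were added to MX-1 breast cancer cells after overnight adhesion. Cells were at 5000/well and proliferation ran 3 days.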
(In general: In ATP-based viability assays light output follows the ATP content of the culture.)

As a reminder, the Ki is a measure of affinity in units of concentration, obtained from inhibition or displacement. Lower therefore signals higher affinity. Turning to `Cn1cc2c3c(c(C#N)[nH]c3c1=O)CN(c1ccc(Cl)cc1)c1ccccc1-2` [Example 201, 4-(4-chlorophenyl)-10-methyl-11-oxo-3,4,10,11-tetrahydro-1H-1,4,10-triazadibenzo[cd,f]azulene-2-carbonitrile], the inhibitory constant (Ki) at BRD4 (BDI_K57-E168) is 0.85 nM; on BRD4 (BDII_E352-M457) it was 3.2 nM. The EC50 in assay [1] came out at 27.8 nM.

`CCNC(=O)c1[nH]c2c(=O)n(C)cc3c2c1CN(c1ccc(C#N)cc1)c1ccc(CS(C)(=O)=O)cc1-3` [Example 203, 4-(4-cyanophenyl)-N-ethyl-10-methyl-7-((methylsulfonyl)methyl)-11-oxo-3,4,10,11-tetrahydro-1H-1,4,10-triazadibenzo[cd,f]azulene-2-carboxamide]: the Ki on BRD4 (BDI_K57-E168) is 0.99 nM; at BRD4 (BDII_E352-M457), 0.71 nM. For the same molecule, the EC50 in assay [1] stood at 5.43 nM.

With `Cn1cc2c3c(c[nH]c3c1=O)C(CN1C(=O)c3ccccc3C1=O)N(c1ccc(F)cc1F)c1ccc(CS(C)(=O)=O)cc1-2` [Example 204, (S)-2-((4-(2,4-difluorophenyl)-10-methyl-7-((methylsulfonyl)methyl)-11-oxo-3,4,10,11-tetrahydro-1H-1,4,10-triazadibenzo[cd,f]azulen-3-yl)methyl)isoindoline-1,3-dione], the inhibitory constant (Ki) at BRD4 (BDI_K57-E168) was 46.1 nM; at BRD4 (BDII_E352-M457) it was 1.22 nM. For the same molecule, the EC50 in assay [1] is > 1000 nM.

For the molecule `Cn1cc2c3c(c[nH]c3c1=O)C(CN1C(=O)c3ccccc3C1=O)N(c1ccc(F)cc1F)c1ccc(CS(C)(=O)=O)cc1-2` [Example 205, (R)-2-((4-(2,4-difluorophenyl)-10-methyl-7-((methylsulfonyl)methyl)-11-oxo-3,4,10,11-tetrahydro-1H-1,4,10-triazadibenzo[cd,f]azulen-3-yl)methyl)isoindoline-1,3-dione], the Ki on BRD4 (BDI_K57-E168) amounted to 200 nM; on BRD4 (BDII_E352-M457), 29.1 nM. The EC50 in assay [1] was > 1000 nM.

For `CCOC(=O)c1[nH]c2c(=O)n(C)cc3c2c1CN(c1ccc(F)cc1F)c1ccc(CS(C)(=O)=O)cc1-3` [Example 208, ethyl 4-(2,4-difluorophenyl)-10-methyl-7-((methylsulfonyl)methyl)-11-oxo-3,4,10,11-tetrahydro-1H-1,4,10-triazadibenzo[cd,f]azulene-2-carboxylate], the Ki at BRD4 (BDI_K57-E168) stood at 3.41 nM; on BRD4 (BDII_E352-M457), 1.15 nM. In assay [1], the EC50 was determined as 10.7 nM.

Turning to `Cn1cc2c3c(c(C(N)=O)[nH]c3c1=O)CN(c1ccc(F)cc1F)c1ccc(CS(C)(=O)=O)cc1-2` [Example 209, 4-(2,4-difluorophenyl)-10-methyl-7-((methylsulfonyl)methyl)-11-oxo-3,4,10,11-tetrahydro-1H-1,4,10-triazadibenzo[cd,f]azulene-2-carboxamide], the Ki on BRD4 (BDI_K57-E168) was determined as 1.2 nM; on BRD4 (BDII_E352-M457), 0.86 nM. For the same molecule, in assay [1], the EC50 turned out to be 6.54 nM.

As for `Cn1cc2c3c(c(C#N)[nH]c3c1=O)CN(c1ccc(F)cc1F)c1ccc(CS(C)(=O)=O)cc1-2` [Example 210, 4-(2,4-difluorophenyl)-10-methyl-7-((methylsulfonyl)methyl)-11-oxo-3,4,10,11-tetrahydro-1H-1,4,10-triazadibenzo[cd,f]azulene-2-carbonitrile], the Ki at BRD4 (BDI_K57-E168) is 1.72 nM; at BRD4 (BDII_E352-M457) it was 0.8 nM. In addition, in assay [1], the EC50 was 13.3 nM.

For the molecule `COc1cc(N2Cc3c[nH]c4c(=O)n(C)cc(c34)-c3cc(CS(C)(=O)=O)ccc32)cc(OC)c1OC` [Example 211, 10-methyl-7-((methylsulfonyl)methyl)-4-(3,4,5-trimethoxyphenyl)-3,4-dihydro-1H-1,4,10-triazadibenzo[cd,f]azulen-11(10H)-one], the Ki on BRD4 (BDI_K57-E168) was found to be 5.67 nM; on BRD4 (BDII_E352-M457), 7.47 nM. For the same molecule, in assay [1], the EC50 stood at 118 nM.

For `Cn1cc2c3c(c[nH]c3c1=O)C(c1ccccc1)N(c1ccc(F)cc1F)c1ccc(CS(C)(=O)=O)cc1-2` (stereo not drawn) [Example 214, 4-(2,4-difluorophenyl)-10-methyl-7-((methylsulfonyl)methyl)-3-phenyl-3,4-dihydro-1H-1,4,10-triazadibenzo[cd,f]azulen-11(10H)-one], the results for the Ki at BRD4 (BDI_K57-E168) and at BRD4 (BDII_E352-M457) were 40.8 nM and 3.25 nM, respectively. Besides, the EC50 in assay [1] came out at 431 nM.

`Cn1cc2c3c(c[nH]c3c1=O)C(c1ccccc1)N(c1ccc(F)cc1F)c1ccc(CS(C)(=O)=O)cc1-2` [Example 216, (S)-4-(2,4-difluorophenyl)-10-methyl-7-((methylsulfonyl)methyl)-3-phenyl-3,4-dihydro-1H-1,4,10-triazadibenzo[cd,f]azulen-11(10H)-one]: the Ki at BRD4 (BDI_K57-E168) is 57.3 nM; on BRD4 (BDII_E352-M457) it was 65.8 nM. Also, in assay [1], the EC50 worked out at 603 nM.

`Cn1cc2c3c(c[nH]c3c1=O)C(c1cccc3ccccc13)N(c1ccc(F)cc1F)c1ccc(CS(C)(=O)=O)cc1-2` (stereo not drawn) [Example 217, 4-(2,4-difluorophenyl)-10-methyl-7-((methylsulfonyl)methyl)-3-(naphthalen-1-yl)-3,4-dihydro-1H-1,4,10-triazadibenzo[cd,f]azulen-11(10H)-one]: the Ki on BRD4 (BDI_K57-E168) is 193 nM; on BRD4 (BDII_E352-M457), 42.6 nM. For the same molecule, the EC50 in assay [1] was > 1000 nM.

Regarding `[2H]C1([2H])c2c[nH]c3c(=O)n(C)cc(c23)-c2cc(CS(C)(=O)=O)ccc2N1c1ccc(F)cc1F` [Example 218, 4-(2,4-difluorophenyl)-(3,3-^2H2)-10-methyl-7-((methylsulfonyl)methyl)-3,4-dihydro-1H-1,4,10-triazadibenzo[cd,f]azulen-11(10H)-one], the Ki on BRD4 (BDI_K57-E168) and at BRD4 (BDII_E352-M457) was 0.64 nM each time. Moreover, the EC50 in assay [1] (Homo sapiens, MX1, 72 h) was 1.36 nM.

On to `Cn1cc2c3c(c[nH]c3c1=O)C(CC(C)(C)C)N(c1ccc(F)cc1F)c1ccc(CS(C)(=O)=O)cc1-2` (stereo not drawn) [Example 219, 4-(2,4-difluorophenyl)-10-methyl-7-((methylsulfonyl)methyl)-3-neopentyl-3,4-dihydro-1H-1,4,10-triazadibenzo[cd,f]azulen-11(10H)-one], for which the Ki on BRD4 (BDI_K57-E168) was determined as 39.9 nM; at BRD4 (BDII_E352-M457), 4.76 nM. Moreover, in assay [1], the EC50 was determined as 301 nM.

For the molecule `Cn1cc2c3c(c[nH]c3c1=O)C(CN1Cc3ccccc3C1=O)N(c1ccc(F)cc1F)c1ccc(CS(C)(=O)=O)cc1-2` (stereo not drawn) [Example 220, 4-(2,4-difluorophenyl)-10-methyl-7-((methylsulfonyl)methyl)-3-((1-oxoisoindolin-2-yl)methyl)-3,4-dihydro-1H-1,4,10-triazadibenzo[cd,f]azulen-11(10H)-one], the Ki is 51.6 nM at BRD4 (BDI_K57-E168) and 2.61 nM at BRD4 (BDII_E352-M457). In addition, the EC50 in assay [1] is 285 nM.

For `COc1cc(OC)cc(C2c3c[nH]c4c(=O)n(C)cc(c34)-c3cc(CS(C)(=O)=O)ccc3N2c2ccc(F)cc2F)c1` (stereo not drawn) [Example 222, 4-(2,4-difluorophenyl)-3-(3,5-dimethoxyphenyl)-10-methyl-7-((methylsulfonyl)methyl)-3,4-dihydro-1H-1,4,10-triazadibenzo[cd,f]azulen-11(10H)-one], the Ki on BRD4 (BDI_K57-E168) came to 170 nM; on BRD4 (BDII_E352-M457) it was 29.4 nM. In addition, the EC50 in assay [1] came out at 160 nM.

`COC(=O)NC1CCC(N2Cc3c[nH]c4c(=O)n(C)cc(c34)-c3cc(CS(C)(=O)=O)ccc32)CC1` (stereo not drawn) [Example 224, methyl (4-(10-methyl-7-((methylsulfonyl)methyl)-11-oxo-10,11-dihydro-1H-1,4,10-triazadibenzo[cd,f]azulen-4(3H)-yl)cyclohexyl)carbamate]: the values for the Ki on BRD4 (BDI_K57-E168) and at BRD4 (BDII_E352-M457) were 1.64 nM and 1.4 nM, respectively. For the same molecule, the EC50 in assay [1] turned out to be 5.84 nM.

For the molecule `COC(=O)NC1CCC(N2Cc3c[nH]c4c(=O)n(C)cc(c34)-c3cc(CS(C)(=O)=O)ccc32)CC1` (stereo not drawn) [Example 225, methyl ((trans)-4-(10-methyl-7-((methylsulfonyl)methyl)-11-oxo-10,11-dihydro-1H-1,4,10-triazadibenzo[cd,f]azulen-4(3H)-yl)cyclohexyl)carbamate], the Ki on BRD4 (BDI_K57-E168) is 3.25 nM; on BRD4 (BDII_E352-M457), 2.39 nM. Further, the EC50 in assay [1] was 12.2 nM.

In the case of `COC(=O)NC1CCC(N2Cc3c[nH]c4c(=O)n(C)cc(c34)-c3cc(CS(C)(=O)=O)ccc32)CC1` (stereo not drawn) [Example 226, methyl ((cis)-4-(10-methyl-7-((methylsulfonyl)methyl)-11-oxo-10,11-dihydro-1H-1,4,10-triazadibenzo[cd,f]azulen-4(3H)-yl)cyclohexyl)carbamate], the Ki on BRD4 (BDI_K57-E168) amounted to 3.84 nM; on BRD4 (BDII_E352-M457), 1.86 nM. The EC50 in assay [1] came to 7.82 nM.

For `Cn1cc2c3c(c[nH]c3c1=O)C(C1CCOCC1)N(c1ccc(F)cc1F)c1ccc(CS(C)(=O)=O)cc1-2` (stereo not drawn) [Example 228, 4-(2,4-difluorophenyl)-10-methyl-7-((methylsulfonyl)methyl)-3-(tetrahydro-2H-pyran-4-yl)-3,4-dihydro-1H-1,4,10-triazadibenzo[cd,f]azulen-11(10H)-one], the Ki came out at 24.5 nM on BRD4 (BDI_K57-E168) and 2.22 nM on BRD4 (BDII_E352-M457). For the same molecule, in assay [1], the EC50 came to 84.9 nM.

For `Cn1cc2c3c(c[nH]c3c1=O)C(c1ccccc1-c1ccccc1)N(c1ccc(F)cc1F)c1ccc(CS(C)(=O)=O)cc1-2` (stereo not drawn) [Example 230], the Ki on BRD4 (BDI_K57-E168) was > 238 nM; at BRD4 (BDII_E352-M457), 58.1 nM. Moreover, in assay [1], the EC50 came out at 528 nM.
